The results in this text go back to ChEMBL document CHEMBL1143538 (Bioorg Med Chem Lett, 2005).

Molecules are shown by their SMILES.

Common to all, as to type: cell-based
Experiment [1] addresses Delta-type opioid receptor (Homo sapiens, UniProt P41143). In words: Binding affinity against Opioid receptor delta 1 expressed in CHO cells using [3H]Naltrindole as radioligand.
Another experiment deals with Mu-type opioid receptor (Homo sapiens, UniProt P35372). In words: Binding affinity against Opioid receptor mu 1 expressed in CHO cells using [3H]DAMGO as radioligand.
Chain of Mu-type opioid receptor (P35372 whole entry): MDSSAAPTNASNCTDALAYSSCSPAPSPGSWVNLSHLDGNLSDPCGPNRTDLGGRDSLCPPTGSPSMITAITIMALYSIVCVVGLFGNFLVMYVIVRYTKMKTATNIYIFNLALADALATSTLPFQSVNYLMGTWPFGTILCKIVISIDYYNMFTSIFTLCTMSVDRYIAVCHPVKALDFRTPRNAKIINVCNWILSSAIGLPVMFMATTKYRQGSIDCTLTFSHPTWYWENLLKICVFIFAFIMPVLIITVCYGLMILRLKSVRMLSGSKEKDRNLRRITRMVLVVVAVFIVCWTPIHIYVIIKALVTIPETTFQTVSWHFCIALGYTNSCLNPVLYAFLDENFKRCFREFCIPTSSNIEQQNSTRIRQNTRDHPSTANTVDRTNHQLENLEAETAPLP
The target in experiment [2] is Kappa-type opioid receptor (Homo sapiens, UniProt P41145). In words: Binding affinity against Opioid receptor kappa 1 expressed in CHO cells using [3H]U-69593 as radioligand.
Chain of Kappa-type opioid receptor (P41145 whole entry): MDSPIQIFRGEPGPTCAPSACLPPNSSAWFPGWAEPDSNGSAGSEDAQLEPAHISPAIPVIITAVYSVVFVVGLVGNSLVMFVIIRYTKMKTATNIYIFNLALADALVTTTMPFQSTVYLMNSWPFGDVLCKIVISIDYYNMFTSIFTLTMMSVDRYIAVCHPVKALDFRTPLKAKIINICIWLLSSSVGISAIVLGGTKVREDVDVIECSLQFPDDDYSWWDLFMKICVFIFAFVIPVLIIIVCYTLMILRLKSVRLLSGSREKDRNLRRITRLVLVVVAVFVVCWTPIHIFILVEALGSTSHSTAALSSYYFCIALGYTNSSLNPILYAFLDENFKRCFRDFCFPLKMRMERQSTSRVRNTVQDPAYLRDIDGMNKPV

By Ki is commonly meant a measure of affinity in units of concentration, obtained from inhibition or displacement.

Chain of Delta-type opioid receptor (P41143 whole entry): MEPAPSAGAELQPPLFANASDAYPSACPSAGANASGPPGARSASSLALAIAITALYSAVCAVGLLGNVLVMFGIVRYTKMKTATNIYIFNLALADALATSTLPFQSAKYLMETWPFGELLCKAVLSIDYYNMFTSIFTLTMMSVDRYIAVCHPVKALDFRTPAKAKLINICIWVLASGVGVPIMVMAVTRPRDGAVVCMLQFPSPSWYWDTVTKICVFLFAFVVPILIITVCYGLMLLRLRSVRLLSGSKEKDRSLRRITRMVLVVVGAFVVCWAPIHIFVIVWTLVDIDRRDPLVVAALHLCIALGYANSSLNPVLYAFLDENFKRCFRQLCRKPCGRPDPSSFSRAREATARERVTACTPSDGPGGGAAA

For `COc1c(C(N)=O)ccc2c1[C@]13CCN(CC4CC4)[C@H](C2)[C@]1(O)CCC(=O)C3`, the Ki in experiment [1] is 480 nM; at Mu-type opioid receptor, 11 nM; in experiment [2], 23 nM.

Consider `NC(=O)c1ccc2c3c1O[C@H]1C(=O)CC[C@@]4(O)[C@@H](C2)N(CC2CC2)CC[C@]314`, for which the Ki in experiment [1] is 550 nM; on Mu-type opioid receptor it was 0.71 nM; in experiment [2], 11 nM.

Take `NC(=O)c1ccc2c(c1O)[C@]13CCN(CC4CC4)[C@H](C2)[C@]1(O)CCC(=O)C3` [SAMIDORPHAN]: the Ki in experiment [1] is 2.6 nM; at Mu-type opioid receptor, 0.052 nM; in experiment [2], 0.23 nM.

For `NC(=O)c1ccc2c(c1O)[C@]13CCN(CC4CCC4)[C@H](C2)[C@]1(O)CCC(=O)C3`, the Ki in experiment [1] amounted to 4.2 nM; in experiment [2], 0.27 nM.

Turning to `O=C1CC[C@@]2(O)[C@H]3Cc4ccc(O)c(O)c4[C@@]2(CCN3CC2CC2)C1`, the Ki in experiment [1] came out at 130 nM; on Mu-type opioid receptor it was 17 nM; in experiment [2], 2.2 nM.
